{"source": "patent US20100204187A1", "about": "“Purine Derivatives” (priority 2007, published 2010)"}
{"test_system": "C57BL/6J mice", "assay": "Delayed-type hypersensitivity response (DTH), footpad swelling after sheep red blood cell challenge (Biological Assay 2)", "format": "in vivo", "conditions": "administered orally (p.o. once daily during sensitization and challenge phases), male C57BL/6J mice", "method": "Delayed-Type Hypersensitivity Response (DTH)\nThis assay was performed essentially as disclosed in Kudlacz E. et al, see supra. Male C57BL/6J mice received i.v. injections of 1×10^5 sheep red blood cells in a volume of 0.2 mL sterile phosphate buffered saline (PBS). Four days later, sensitized mice received an injection of 1×10^8 sheep red blood cells in a volume of 30 μL sterile PBS into the left footpad. Twenty-four hours later, animals were sacrificed and their footpads removed and weighted. The DTH swelling response was calculated by subtracting the right footpad weight (baseline) from that of the left footpad (experimental). Test compounds or vehicle (0.2% carboxymethylcellulose and 1% Tween 80 in water) were administered p.o. once daily during both sensitization and challenge phases of the DTH response. Compounds of examples 1 cc, 1cr, 1ct, 5u, 10h and 10p were active in this assay when administered orally."}
{"smiles": "CS(=O)(=O)c1cccc(-c2nc(Nc3ccc(CCO)cc3)nc3[nH]cnc23)c1", "note": "[Example 1ct]", "activity in DTH swelling response assay": "active"}
{"smiles": "CCCN(C)c1ccc(-c2nc(Nc3ccc(N4CCOCC4)cc3)nc3[nH]cnc23)cn1", "note": "[Example 5u, 6-[(6-N-methylpropylamino)pyridin-3-yl]-2-[4-(4-morpholino)phenyl]amino-9H-purine]", "activity in DTH swelling response assay": "active"}
{"smiles": "COc1ccc(Nc2nc(-c3cccc(S(C)(=O)=O)c3)c3nc[nH]c3n2)cc1OC", "note": "[Example 1cr, 2-(3,4-dimethoxyphenyl)amino-6-(3-methanesulfonyl)phenyl-9H-purine]", "activity in DTH swelling response assay": "active"}
{"smiles": "COc1ccc(Nc2nc(-c3ccc(NC(C)=O)cc3)c3nc[nH]c3n2)cc1S(N)(=O)=O", "note": "[Example 1 cc, 6-(4-acetylamino)phenyl-2-(4-methoxy-3-aminosulfonylphenyl)amino-9H-purine]", "activity in DTH swelling response assay": "active"}
